≈ marks a conversion by molar mass, not a printed value. Blank lines part the entries; values can stand above or below the molecule they belong to.
Columns and labels:
Assay type in all cases: functional
Haemophilus influenzae [1] = assay: Antibacterial activity against Haemophilus influenzae 49247
Haemophilus influenzae [2] = assay: Antibacterial activity against Haemophilus influenzae 33929
Streptococcus pneumoniae [3] = assay: Antibacterial activity against Streptococcus pneumoniae A22072
Staphylococcus aureus [4] = assay: Antibacterial activity against Staphylococcus aureus ATCC 25923
Staphylococcus aureus [5] = assay: Antibacterial activity against Staphylococcus aureus
Streptococcus pneumoniae [6] = assay: Antibacterial activity against Streptococcus pneumoniae AB11
Streptococcus pyogenes [7] = assay: Antibacterial activity against Streptococcus pyogenes R2
Streptococcus pyogenes [8] = assay: Antibacterial activity against Streptococcus pyogenes S2
Streptococcus pneumoniae [9] = assay: Antibacterial activity against Streptococcus pneumoniae B1
Streptococcus pneumoniae [10] = assay: Antibacterial activity against Streptococcus pneumoniae ATCC 49619
Staphylococcus aureus [11] = assay: Antibacterial activity against methicillin susceptible and erythromycin resistant Staphylococcus aureus by broth microdilution method
Staphylococcus aureus [12] = assay: Antibacterial activity against methicillin resistant Staphylococcus aureus by broth microdilution method
[13] = tested on: Staphylococcus haemolyticus; assay: Antibacterial activity against Staphylococcus haemolyticus by broth microdilution method
[14] = tested on: Staphylococcus epidermidis; assay: Antibacterial activity against methicillin resistant Staphylococcus epidermidis by broth microdilution method
Haemophilus influenzae [15] = assay: Antibacterial activity against Haemophilus influenzae by broth microdilution method
Streptococcus pneumoniae [16] = assay: Antibacterial activity against Streptococcus pneumoniae by broth microdilution method
Staphylococcus aureus [17] = assay: Antibacterial activity against methicillin/erythromycin susceptible Staphylococcus aureus by broth microdilution method
Enterococcus faecalis = assay: Antibacterial activity against Enterococcus faecalis by broth microdilution method
[18] = tested on: Staphylococcus epidermidis; assay: Antibacterial activity against methicillin susceptible Staphylococcus epidermidis by broth microdilution method
Staphylococcus aureus [19] = assay: Antibacterial activity against Staphylococcus aureus 11B117 by broth microdilution method
Haemophilus influenzae [20] = assay: Antibacterial activity against Haemophilus influenzae 11Q373 by broth microdilution method
[21] = tested on: Staphylococcus epidermidis; assay: Antibacterial activity against Staphylococcus epidermidis 11X315 by broth microdilution method
Staphylococcus aureus [22] = assay: Antibacterial activity against Staphylococcus aureus ATCC 29213 by broth microdilution method
Moraxella catarrhalis = assay: Antibacterial activity against Moraxella catarrhalis by broth microdilution method
Streptococcus pneumoniae [23] = assay: Antibacterial activity against Streptococcus pneumoniae ATCC 49619 by broth microdilution method
[24] = tested on: Staphylococcus epidermidis; assay: Antibacterial activity against Staphylococcus epidermidis 11C176 by broth microdilution method
Streptococcus pneumoniae [25] = assay: Antibacterial activity against Streptococcus pneumoniae 11J011 by broth microdilution method
Haemophilus influenzae [26] = assay: Antibacterial activity against Haemophilus influenzae ATCC 49247 by broth microdilution method
Staphylococcus aureus [27] = assay: Antibacterial activity against methicillin resistant Staphylococcus aureus 7662
Staphylococcus aureus [28] = assay: Antibacterial activity against methicillin resistant Staphylococcus aureus 33591

SMILES: CC[C@H]1OC(=O)[C@H](C)[C@@H](O[C@H]2C[C@@](C)(OC)[C@@H](OC(=O)NCc3cccc(Cl)c3)[C@H](C)O2)[C@H](C)[C@@H](OC2O[C@H](C)C[C@H](N(C)C)[C@H]2O)[C@]2(C)C[C@@H](C)/C(=N\[C@H](C)[C@H]3OC(=O)O[C@@]31C)O2 (stereo partly specified)
MIC (Streptococcus pneumoniae [3]): 4 µg/mL (≈ 4.33 µM)
MIC (Staphylococcus aureus [4]): 8 µg/mL (≈ 8.65 µM)
MIC (Staphylococcus aureus [5]): 32 µg/mL (≈ 34.6 µM)
MIC (Streptococcus pneumoniae [6]): 16 µg/mL (≈ 17.3 µM)
MIC (Streptococcus pyogenes [7]): 64 µg/mL (≈ 69.2 µM)
MIC (Streptococcus pyogenes [8]): 1 µg/mL (≈ 1.08 µM)
MIC (Streptococcus pneumoniae [9]): 16 µg/mL (≈ 17.3 µM)
MIC (Streptococcus pneumoniae [10]): 0.03 µg/mL (≈ 0.0324 µM)

SMILES: CC[C@H]1OC(=O)[C@H](C)C(=O)[C@H](C)[C@@H](O[C@@H]2O[C@H](C)C[C@H](N(C)C)[C@H]2O)[C@](C)(OC)C[C@@H](C)C(=O)[C@H](C)[C@H]2N(CCCOC(=O)Nc3cccc(C)c3)C(=O)O[C@]12C
MIC50 (Staphylococcus aureus [11]): 0.25 µg/mL (≈ 0.311 µM)
MIC50 (Staphylococcus aureus [12]): 128 to 256 µg/mL (≈ 159 to 318 µM)
MIC50 [13]: 1 to 2 µg/mL (≈ 1.24 to 2.49 µM)
MIC50 [14]: 1 to 128 µg/mL (≈ 1.24 to 159 µM)
MIC50 (Haemophilus influenzae [15]): 4 to 8 µg/mL (≈ 4.98 to 9.95 µM)
MIC50 (Streptococcus pneumoniae [16]): 0.062 to 0.125 µg/mL (≈ 0.0771 to 0.155 µM)
MIC50 (Staphylococcus aureus [17]): 0.125 µg/mL (≈ 0.155 µM)
MIC50 (Enterococcus faecalis): > 256 µg/mL
MIC50 [18]: 0.031 µg/mL (≈ 0.0386 µM)

SMILES: CCC(=O)/N=C1\[C@H](C)C[C@@]2(C)OC/C(=N/OCc3csc(-c4cccc(N)n4)n3)CO[C@H]([C@H]1C)[C@](C)(O)[C@@H](CC)OC(=O)[C@@](C)(F)C(=O)[C@H](C)[C@H]2O[C@@H]1O[C@H](C)C[C@H](N(C)C)[C@H]1O
MIC (Staphylococcus aureus [27]): 1 µg/mL (≈ 1.1 µM)
MIC (Haemophilus influenzae [1]): 1 µg/mL (≈ 1.1 µM)
MIC (Staphylococcus aureus [28]): 2 µg/mL (≈ 2.21 µM)
MIC (Haemophilus influenzae [2]): 4 µg/mL (≈ 4.42 µM)

Now from value to molecule:

MIC (Haemophilus influenzae [1]): 1 µg/mL (≈ 1.2 µM)
MIC (Haemophilus influenzae [2]): 2 µg/mL (≈ 2.4 µM)
SMILES: CC[C@H]1OC(=O)[C@H](C)C(=O)[C@H](C)[C@@H](O[C@@H]2O[C@H](C)C[C@H](N(C)C)[C@H]2O)[C@@]2(C)C[C@@H](C)C(=O)[C@H](C)[C@@H](OC/C(=N\OCc3ccc(-c4nc(N)cs4)cn3)CO2)[C@]1(C)O

MIC50 (Staphylococcus aureus [19]): > 64 µg/mL
MIC50 (Haemophilus influenzae [20]): 16 µg/mL (≈ 16.8 µM)
MIC50 [21]: 1 µg/mL (≈ 1.05 µM)
MIC50 (Staphylococcus aureus [22]): 2 µg/mL (≈ 2.1 µM)
MIC50 (Moraxella catarrhalis): 2 µg/mL (≈ 2.1 µM)
MIC50 (Streptococcus pneumoniae [23]): 0.25 µg/mL (≈ 0.263 µM)
MIC50 [24]: 1 µg/mL (≈ 1.05 µM)
MIC50 (Streptococcus pneumoniae [25]): 2 µg/mL (≈ 2.1 µM)
MIC50 (Haemophilus influenzae [26]): 32 µg/mL (≈ 33.6 µM)
SMILES: CC[C@H]1OC(=O)[C@H](C)C(=O)[C@H](C)[C@@H](O[C@@H]2O[C@H](C)C[C@H](N(C)C)[C@H]2O)[C@](C)(OC)C[C@@H](C)C(=O)[C@H](C)[C@H]2N(CCCN(c3cnc4ccccc4c3)S(=O)(=O)c3ccc(C)cc3)C(=O)O[C@]12C

MIC50 (Staphylococcus aureus [19]): > 64 µg/mL
MIC50 (Haemophilus influenzae [20]): 2 µg/mL (≈ 2.25 µM)
MIC50 [21]: 0.25 µg/mL (≈ 0.282 µM)
MIC50 (Staphylococcus aureus [22]): 0.25 µg/mL (≈ 0.282 µM)
MIC50 (Moraxella catarrhalis): 0.25 µg/mL (≈ 0.282 µM)
MIC50 (Streptococcus pneumoniae [23]): 0.031 µg/mL (≈ 0.0349 µM)
MIC50 [24]: 0.25 µg/mL (≈ 0.282 µM)
MIC50 (Streptococcus pneumoniae [25]): 2 µg/mL (≈ 2.25 µM)
MIC50 (Haemophilus influenzae [26]): 2 µg/mL (≈ 2.25 µM)
SMILES: CC[C@H]1OC(=O)[C@H](C)C(=O)[C@H](C)[C@@H](O[C@@H]2O[C@H](C)C[C@H](N(C)C)[C@H]2O)[C@](C)(OC)C[C@@H](C)C(=O)[C@H](C)[C@H]2N(CCCN(Cc3ccccc3)c3cnc4ccccc4c3)C(=O)O[C@]12C
